Patent publication US10588906B2, “Method of preventing hair loss or promoting hair growth by using phosphodiesterase 3 inhibitor” (SEOUL NATIONAL UNIVERSITY HOSPITAL, priority 2017, dated 2020)

Experiments:
[1] = system: human hair follicle-derived hair dermal papilla cells (hDPCs); test: BrdU assay of cell division of hDPCs; assay type: cell-based; settings: 0 μM to 10 μM, 48 hours, versus negative control, FIG. 1
Experimental: To evaluate the effect of PDE on the proliferation of hair follicle cells, human hair follicle-derived hDPCs were treated with cilostazol, cilostamide, trequinsin, or milrinone, which are well-known PDE 3 inhibitors, and then subjected to a BrdU assay.
First, primarily cultured hDPCs were treated with cilostazol, cilostamide, trequinsin, or milrinone at a concentration of 0 μM to 10 μM, cultured for 44 hours, treated with a BrdU reagent, and then allowed to react for 4 hours. After culturing for a total of 48 hours, the presence or absence of luminescence was measured using a luminometer for detecting BrdU, and cell division and activation degrees of the hDPCs were identified by comparison with a negative control.

ERK signaling pathway = test: Western blotting of ERK phosphorylation in hDPCs; assay type: cell-based, human; settings: 1 μM, within 15 minutes, FIG. 2
Experimental: To identify the effects of PDE 3 inhibitors on an ERK signaling pathway, which is a key cell proliferation-associated signaling pathway, human hDPCs were treated with cilostazol, cilostamide, trequinsin, or milrinone at a concentration of 1 μM for 0 minute, 5 minutes, 15 minutes, and 60 minutes, and western blotting was performed thereon.

human hair follicles [2] = test: Ex vivo hair follicle organ culture test; settings: 1 μM or 10 μM, day 2, 4 and 6, versus negative control, FIG. 3A
Experimental: To evaluate the effects of PDE 3 inhibitors on human hair follicle growth, an ex vivo hair follicle organic culture test was performed using cilostazol. More particularly, to conduct the ex vivo hair follicle organic culture test, scalp tissues obtained from volunteers were divided into follicular units, and parts below sebaceous glands of the divided hair follicles were cut off and the remaining parts of the hair follicles were used. The prepared hair follicles were cultured in a culture medium containing a negative control reagent or 1 μM or 10 μM cilostazol, the length of hair growing on day 2, day 4, and day 6 was measured, and then a hair growth promotion effect of the human hair follicles was identified by comparison with a negative control.

human hair follicles [3] = test: Ki-67 immunofluorescence staining of cultured hair follicles; settings: cultured for two days, FIG. 3B
Experimental: In addition, to identify cell proliferation of the cultured hair follicles through the test, immunofluorescence staining was performed using antibodies against Ki-67, which is a cell division marker. The hair follicles were treated with cilostazol, cultured for two days, and made into a tissue section, the tissue section was cut to a thickness of 4 μm and fixed on a slide, followed by reaction with Ki-67 treated with primary antibodies and treatment with secondary antibodies with green fluorescence capable of detecting Ki-67, and then the resulting section was observed using a fluorescence microscope and photographed, and the number of Ki-67 positive cells was identified. In addition, the nuclei of the hair follicles was stained using a DAPI reagent.

C57BL/6 mice = test: Anagen induction test in C57BL/6 mouse model; assay type: in vivo; settings: 0.2 wt % or 1 wt % applied once a day for three weeks
Text: To identify hair growth effects by PDE 3 inhibitors, an anagen induction effect was examined using a C57BL/6 mouse model. Although the hair cycle of human hair varies depending on individuals, mice have the same hair cycle at an initial stage and all hairs enter into a telogen phase 7 weeks to 8 weeks after birth, which then turns into an anagen phase. To evaluate an anagen induction effect using these characteristics of mice, dorsal hairs of 8-week-old C57BL/6 mice in the telogen phase were removed, 0.2 wt % or 1 wt % of cilostazol was applied thereon once a day for three weeks, and then through comparison with a negative control and the case of 2 wt % of minoxidil as a positive control, the presence or absence of hair growth and an anagen induction degree were identified. In addition, skin tissue from which anagen hair grew was fixed with paraffin and stained with hematoxylin and eosin to conduct a histological examination, and the results thereof are shown in FIG. 5.

[4] = system: MAPK-associated proteins (ERK, JNK, P-38); test: Western blotting of MAPK-associated signaling proteins in mouse skin tissue; assay type: in vivo; settings: mouse skin tissue after anagen induction experiment, FIG. 6
Experimental: To verify the effect of a PDE 3 inhibitor on a MAPK-associated signaling pathway, which is a cell proliferation-associated signaling pathway, western blotting was performed using mouse skin tissue.

[5] = system: angiogenesis around hair follicles; test: CD31 immunofluorescence staining for angiogenesis around hair follicles; assay type: in vivo; settings: mouse skin tissue
Experimental: To verify the effect of a PDE 3 inhibitor on angiogenesis around hair follicles, immunofluorescence staining with CD31, which is a blood vessel marker protein, was performed. More particularly, mouse skin tissue of a negative control and mouse skin tissue on which cilostazol was applied were rapidly cryotreated and prepared into blocks, and then each block was cut into a tissue section having a thickness of 15 μm using a cryotome and immobilized on a slide. In addition, each tissue section was allowed to react with antibodies against CD31, which is a blood vessel marker protein, as primary antibodies, and then treated with secondary antibodies with green fluorescence capable of detecting CD31, and the resulting tissue sections were observed using a fluorescence microscope and photographed, and the area of blood vessels was measured using an image analysis program.

Row | SMILES | cell division of the hDPCs (BrdU) [1] | phosphorylation of intracellular ERK proteins (ERK signaling pathway) | hair growth of the human hair follicles (length of hair) (human hair follicles [2]) | cell division in the human hair follicles (Ki-67 positive cells) (human hair follicles [3]) | proportion of a site on which anagen hair grew (C57BL/6 mice; FIG. 4) | formation of hair follicles (hematoxylin and eosin histology) (C57BL/6 mice; FIG. 5A) | anagen induction score (C57BL/6 mice; FIG. 5B) | skin thickness (C57BL/6 mice; FIG. 5C) | phosphorylation of the MAPK-associated signaling proteins (ERK, JNK, P-38) [4] | angiogenesis (CD31 staining) ([5]; FIG. 7A) | area of blood vessels ([5]; image analysis, FIG. 7B)
1 | CN(C(=O)CCCOc1ccc2[nH]c(=O)ccc2c1)C1CCCCC1 [cilostamide] | significantly increased | increased |  |  |  |  |  |  |  |  | 
2 | O=C1CCc2cc(OCCCCc3nnnn3C3CCCCC3)ccc2N1 [cilostazol] | significantly increased | increased | promoted hair growth | increased | significantly increased | promoted | increases | increases | increased | induced | increased
3 | Cc1[nH]c(=O)c(C#N)cc1-c1ccncc1 [milrinone] | significantly increased | increased |  |  |  |  |  |  |  |  | 
4 | COc1cc2c(cc1OC)-c1c/c(=N\c3c(C)cc(C)cc3C)n(C)c(=O)n1CC2 [trequinsin] | significantly increased | increased |  |  |  |  |  |  |  |  | 
